Experimental findings from ChEMBL document CHEMBL1144384, “Hypoxia-selective activation of 5-fluorodeoxyuridine prodrug possessing indolequinone structure: radiolytic reduction and cytotoxicity characteristics” (Bioorg Med Chem Lett, 2005) are described below.

The nature of the test: Inhibitory concentration required to reduce cellular survival to 50% towards murine tumor EMT6/KU cell line. Type of test: functional, cell-based. The settings on record: Mus musculus.

Turning to `O=c1[nH]c(=O)n([C@H]2C[C@H](O)[C@@H](CO)O2)cc1F` [FLOXURIDINE], the IC50 was 8.1 µM.
